Structures are written as SMILES.

Consider one molecule from PubChem BioAssay AID1963983 (Molecular Pharmacology Branch, DTP, NCI, 2024).

The experiment concerns 186277-243-T-J2-PDC multi-cell spheroid viability. The experiment is described as follows: Anticancer human tumor 186277-243-T-J2-PDC patient-derived colon adenocarcinoma cell line growth inhibition [PI3K]. Conditions: for viability, T/C: stronger effect = lower value. In short, it runs like this: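 Three cell types, namely tumor cells, endothelial cells and mesenchymal stem cells, formed each spheroid. Combinations with four PI3K inhibitors were screened at clinically achievable concentrations decreasing by half-log, and spheroid viability was recorded.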
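Note: spheroids exposed to compounds for seven days before viability reading.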
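Throughout, for viability, T/C: 100% = DMSO vehicle control viability.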

With `COc1c(OCCCN2CCOCC2)ccc2c3n(c(=NC(=O)c4cnc(N)nc4)nc12)CCN3`, the viability, T/C by setting is: (compound 0.00316 µM) 98.7% [middle of 8 runs]; (compound 0.01 µM) 97.8% [middle of 8 runs]; (compound 0.0316 µM) 73.4% [middle of 8 runs]; (compound 0.1 µM) 16.7% [middle of 8 runs]; (compound 0.316 µM) 6.29% [middle of 8 runs]; (compound 1 µM) 2.87% [middle of 8 runs]. For the same molecule, under “compound alone, run of 05/09/2023”, the IC50 was 51.4 nM [middle of 8 runs].

As a reminder, the viability, T/C is the result in the treated group divided by that in the control group, in per cent. Usually IC50 stands for the concentration that inhibits the measured activity by half.
